In patent US20100040734A1, “Cacao Husk-Derived Water-Soluble, Dietary Fiber, Process For Its Production, Foods and Beverages Containing It And Methods For Their Preparation” (FUJI OIL COMPANY, LIMITED, priority 2000, published 2010):

What was measured:
Assay in all cases: microbiostatic property by turbidity in standard liquid medium
Format in all cases: cell-based
Conditions in all cases: 35° C.
Saccharomyces cerevisiae = tested on: Saccharomyces cerevisiae
Excerpt: (§1) For evaluation of the shelf-life extending property (microbiostatic property), there was used a standard liquid medium (pH 7.2) containing the cacao husk-derived water-soluble dietary fiber of the invention at 0%, 0.5% or 1.0% with suitable amounts of shelf stability increasing substances, and using Escherichia coli, Aspergilius oryzae and Saccharomyces cerevisiae as the target strains. […] As the turbidity of the medium increases with growth of the cells, a test substance with a microbiostatic property will inhibit the cell growth and result in less turbidity. The turbidity was determined by measuring the absorbance at a wavelength of 610 nm (the spectrophotometer used was PTL-396S by JASCO Co., Ltd.), and the units for the turbidity were based on JIS1010.

Aspergillus oryzae = tested on: Aspergillus oryzae
Excerpt: as §1

Escherichia coli = tested on: Escherichia coli
Experimental: […] The turbidity was determined by measuring the absorbance at a wavelength of 610 nm (the spectrophotometer used was PTL-396S by JASCO Co., Ltd.), and the units for the turbidity were based on JIS1010.

With CCO [Ethanol] the turbidity (Saccharomyces cerevisiae; added at 0.05%, days stored 1) was 59 unit, the turbidity (Saccharomyces cerevisiae; added at 0.05%, days stored 2) was 251 unit and the turbidity (Saccharomyces cerevisiae; added at 0.05%, days stored 3) was 487 unit. It also gave a turbidity (Saccharomyces cerevisiae; added at 0.1%, days stored 1) of 36 unit, a turbidity (Saccharomyces cerevisiae; added at 0.1%, days stored 2) of 182 unit and a turbidity (Saccharomyces cerevisiae; added at 0.1%, days stored 3) of 411 unit. The turbidity (Aspergillus oryzae; added at 0.05%, days stored 1) was 17 unit, the turbidity (Aspergillus oryzae; added at 0.05%, days stored 2) was 128 unit and the turbidity (Aspergillus oryzae; added at 0.05%, days stored 3) was 328 unit. It also gave a turbidity (Aspergillus oryzae; added at 0.1%, days stored 1) of 10 unit, a turbidity (Aspergillus oryzae; added at 0.1%, days stored 2) of 112 unit and a turbidity (Aspergillus oryzae; added at 0.1%, days stored 3) of 251 unit. The turbidity (Aspergillus oryzae; added at 0.1%, days stored 4) was 475 unit, the turbidity (Escherichia coli; added at 0.05%, days stored 1) was 104 unit and the turbidity (Escherichia coli; added at 0.05%, days stored 2) was 441 unit. The turbidity (Escherichia coli; added at 0.1%, days stored 1) was 112 unit, the turbidity (Escherichia coli; added at 0.1%, days stored 2) was 382 unit and the turbidity (Escherichia coli; added at 0.1%, days stored 3) was 455 unit.

O=C1O[C@H]([C@@H](O)CO)C([O-])=C1O.[Na+] [Na ascorbate] gave a turbidity (Saccharomyces cerevisiae; added at 0.1%, days stored 1) of 122 unit, a turbidity (Saccharomyces cerevisiae; added at 0.1%, days stored 2) of 391 unit and a turbidity (Saccharomyces cerevisiae; added at 0.5%, days stored 1) of 76 unit. For the same molecule, the turbidity (Saccharomyces cerevisiae; added at 0.5%, days stored 2) was 251 unit, the turbidity (Saccharomyces cerevisiae; added at 0.5%, days stored 3) was 433 unit and the turbidity (Aspergillus oryzae; added at 0.1%, days stored 1) was 107 unit. The turbidity (Aspergillus oryzae; added at 0.1%, days stored 2) was 370 unit, the turbidity (Aspergillus oryzae; added at 0.5%, days stored 1) was 58 unit and the turbidity (Aspergillus oryzae; added at 0.5%, days stored 2) was 178 unit. For the same molecule, the turbidity (Aspergillus oryzae; added at 0.5%, days stored 3) was 422 unit, the turbidity (Escherichia coli; added at 0.1%, days stored 1) was 115 unit and the turbidity (Escherichia coli; added at 0.1%, days stored 2) was 402 unit. For the same molecule, the turbidity (Escherichia coli; added at 0.5%, days stored 1) was 18 unit, the turbidity (Escherichia coli; added at 0.5%, days stored 2) was 211 unit and the turbidity (Escherichia coli; added at 0.5%, days stored 3) was 315 unit. It also gave a turbidity (Escherichia coli; added at 0.5%, days stored 4) of 452 unit.

Work on Glycerin fatty acid ester yielded a turbidity (Saccharomyces cerevisiae; added at 0.01%, days stored 1) of 79 unit, a turbidity (Saccharomyces cerevisiae; added at 0.01%, days stored 2) of 281 unit and a turbidity (Saccharomyces cerevisiae; added at 0.01%, days stored 3) of 485 unit. It also gave a turbidity (Saccharomyces cerevisiae; added at 0.05%, days stored 1) of 38 unit, a turbidity (Saccharomyces cerevisiae; added at 0.05%, days stored 2) of 107 unit and a turbidity (Saccharomyces cerevisiae; added at 0.05%, days stored 3) of 375 unit. For the same molecule, the turbidity (Aspergillus oryzae; added at 0.01%, days stored 1) was 86 unit, the turbidity (Aspergillus oryzae; added at 0.01%, days stored 2) was 417 unit and the turbidity (Aspergillus oryzae; added at 0.05%, days stored 1) was 53 unit. It also gave a turbidity (Aspergillus oryzae; added at 0.05%, days stored 2) of 199 unit, a turbidity (Aspergillus oryzae; added at 0.05%, days stored 3) of 418 unit and a turbidity (Escherichia coli; added at 0.01%, days stored 1) of 113 unit. For the same molecule, the turbidity (Escherichia coli; added at 0.01%, days stored 2) was 415 unit, the turbidity (Escherichia coli; added at 0.05%, days stored 1) was 47 unit and the turbidity (Escherichia coli; added at 0.05%, days stored 2) was 196 unit. For the same molecule, the turbidity (Escherichia coli; added at 0.05%, days stored 3) was 305 unit and the turbidity (Escherichia coli; added at 0.05%, days stored 4) was 481 unit.

Molecule [Cl-].[Na+] [Salt] has a turbidity (Saccharomyces cerevisiae; added at 1.0%, days stored 1) of 112 unit, a turbidity (Saccharomyces cerevisiae; added at 1.0%, days stored 2) of 425 unit and a turbidity (Saccharomyces cerevisiae; added at 2.0%, days stored 1) of 24 unit. For the same molecule, the turbidity (Saccharomyces cerevisiae; added at 2.0%, days stored 2) was 377 unit, the turbidity (Aspergillus oryzae; added at 1.0%, days stored 1) was 99 unit and the turbidity (Aspergillus oryzae; added at 1.0%, days stored 2) was 487 unit. It also gave a turbidity (Aspergillus oryzae; added at 2.0%, days stored 1) of 68 unit, a turbidity (Aspergillus oryzae; added at 2.0%, days stored 2) of 272 unit and a turbidity (Aspergillus oryzae; added at 2.0%, days stored 3) of 429 unit. The turbidity (Escherichia coli; added at 1.0%, days stored 1) was 141 unit, the turbidity (Escherichia coli; added at 1.0%, days stored 2) was 524 unit and the turbidity (Escherichia coli; added at 2.0%, days stored 1) was 31 unit. The turbidity (Escherichia coli; added at 2.0%, days stored 2) was 353 unit.
